Assays:
[1] = target: T1, Angiotensin-converting enzyme (Oryctolagus cuniculus, UniProt P12822); assay: Inhibition of rabbit lung ACE assessed as hippuryl-histidyl-leucine hydrolysis after 30 mins by colorimetric method
T1 sequence (P12822 whole entry): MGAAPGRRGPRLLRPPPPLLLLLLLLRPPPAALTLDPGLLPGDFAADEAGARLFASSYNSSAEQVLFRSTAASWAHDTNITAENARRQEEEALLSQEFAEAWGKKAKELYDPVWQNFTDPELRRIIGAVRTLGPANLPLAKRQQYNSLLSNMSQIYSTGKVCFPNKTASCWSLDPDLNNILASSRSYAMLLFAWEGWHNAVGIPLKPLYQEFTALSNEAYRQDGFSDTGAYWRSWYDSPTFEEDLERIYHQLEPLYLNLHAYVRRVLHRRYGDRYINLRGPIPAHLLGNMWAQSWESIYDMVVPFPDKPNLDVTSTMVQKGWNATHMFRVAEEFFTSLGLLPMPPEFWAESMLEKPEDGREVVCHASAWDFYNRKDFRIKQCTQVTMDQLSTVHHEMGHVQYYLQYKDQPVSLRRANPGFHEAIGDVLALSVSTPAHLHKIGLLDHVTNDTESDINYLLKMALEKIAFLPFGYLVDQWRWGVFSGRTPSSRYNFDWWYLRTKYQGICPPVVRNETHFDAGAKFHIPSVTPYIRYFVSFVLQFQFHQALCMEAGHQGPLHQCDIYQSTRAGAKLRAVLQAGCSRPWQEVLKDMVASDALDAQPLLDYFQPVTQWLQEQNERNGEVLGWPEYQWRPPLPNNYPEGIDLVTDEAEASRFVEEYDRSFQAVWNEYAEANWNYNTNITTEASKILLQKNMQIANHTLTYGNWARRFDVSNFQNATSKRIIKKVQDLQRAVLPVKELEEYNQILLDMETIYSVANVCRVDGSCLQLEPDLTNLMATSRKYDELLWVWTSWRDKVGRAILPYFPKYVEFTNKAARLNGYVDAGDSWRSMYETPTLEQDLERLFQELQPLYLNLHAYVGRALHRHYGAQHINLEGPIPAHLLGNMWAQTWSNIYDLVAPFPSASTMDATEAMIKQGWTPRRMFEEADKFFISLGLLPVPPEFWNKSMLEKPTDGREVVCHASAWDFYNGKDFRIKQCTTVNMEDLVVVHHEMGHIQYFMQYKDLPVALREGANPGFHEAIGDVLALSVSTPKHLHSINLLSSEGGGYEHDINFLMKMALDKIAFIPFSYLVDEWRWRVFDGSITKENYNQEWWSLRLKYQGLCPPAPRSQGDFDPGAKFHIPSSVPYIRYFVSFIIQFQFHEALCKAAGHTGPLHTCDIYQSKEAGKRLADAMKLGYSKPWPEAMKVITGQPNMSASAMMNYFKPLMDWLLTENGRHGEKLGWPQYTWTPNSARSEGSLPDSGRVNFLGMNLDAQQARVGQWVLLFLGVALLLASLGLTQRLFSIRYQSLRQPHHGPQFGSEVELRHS

ACE (rabbit lung) [2] = assay: Ratio of IC50 for human A549 cells to IC50 for rabbit lung ACE; format: cell-based; details: read-out: Ratio IC50
ACE (rabbit lung) [3] = assay: Ratio of IC50 for HEK cells to IC50 for rabbit lung ACE; format: cell-based, HEK293; details: read-out: Ratio IC50
[4] = target: T2, Angiotensin-converting enzyme (Oryctolagus cuniculus) (UniProt P12822); assay: Inhibition of rabbit lung ACE assessed as hippuryl-histidyl-leucine hydrolysis at 1 uM after 30 mins by colorimetric method
T2 sequence (whole entry): T1 sequence (P12822 whole entry)

SMILES	IC50 [1] [nM]	inhibition [4] [%]	selectivity ratio (ACE (rabbit lung) [2])	selectivity ratio (ACE (rabbit lung) [3])
CCCCc1nc(Cl)c(C(=O)N[C@@H](CCSC)C(=O)O)n1C	657	> 80	1000	1000
NCCCC[C@H](N[C@@H](CCc1ccccc1)C(=O)O)C(=O)N1CCC[C@H]1C(=O)O [LISINOPRIL ANHYDROUS]	318	–	–	–
CCCCc1nc(Cl)c(C(=O)N[C@@H](CO)C(=O)O)n1C	–	55	–	–
CCOC(=O)[C@H](CCc1ccccc1)N[C@H]1CCc2ccccc2N(CC(=O)O)C1=O [BENAZEPRIL]	100	–	–	–
CCCCc1nc(Cl)c(C(=O)NCC(=O)OC)n1C	–	55	–	–
CCCCc1nc(Cl)c(C(=O)N[C@H](C(=O)O)C(C)C)n1C	–	55	–	–
CCCCc1nc(Cl)c(C(=O)N[C@@H](C)C(=O)O)n1C	–	55	–	–
CCCCc1nc(Cl)c(C(=O)N[C@H](C(=O)OC)C(C)C)n1C	–	55	–	–
CCCCc1nc(Cl)c(C(=O)N[C@H](C(=O)O)[C@H](C)O)n1C	–	55	–	–
CCCCc1nc(Cl)c(C(=O)N[C@@H](Cc2c[nH]c3ccccc23)C(=O)O)n1C	–	> 80	–	–
CCCCc1nc(Cl)c(C(=O)N[C@@H](CC(C)C)C(=O)O)n1C	–	55	–	–
CCCCc1nc(Cl)c(C(=O)NCC(=O)O)n1C	–	55	–	–
CCCCc1nc(Cl)c(C(=O)N[C@H](C(=O)O)[C@H](C)CC)n1C	1120	> 80	1000	1000
CCCCc1nc(Cl)c(C(=O)N[C@H](C(=O)OC)[C@H](C)CC)n1C	–	55	–	–

Continued, in another order:

IC50 [1] [nM]	inhibition [4] [%]	SMILES	selectivity ratio (ACE (rabbit lung) [2])	selectivity ratio (ACE (rabbit lung) [3])
100	55	CCCCc1nc(Cl)c(C(=O)N[C@@H](Cc2ccccc2)C(=O)O)n1C	1000	1000
–	55	CCCCc1nc(Cl)c(C(=O)N[C@@H](Cc2ccc(O)cc2)C(=O)OC)n1C	–	–
–	55	CCCCc1nc(Cl)c(C(=O)N[C@@H](CCSC)C(=O)OC)n1C	–	–
–	55	CCCCc1nc(Cl)c(C(=O)N[C@H](C(=O)OC)[C@H](C)O)n1C	–	–
–	55	CCCCc1nc(Cl)c(C(=O)N[C@@H](C)C(=O)OC)n1C	–	–
–	55	CCCCc1nc(Cl)c(C(=O)N[C@@H](Cc2ccc(O)cc2)C(=O)O)n1C	–	–
531	> 80	CCCCc1nc(Cl)c(C(=O)N[C@@H](Cc2c[nH]c3ccccc23)C(=O)OC)n1C	1000	1000
–	55	CCCCc1nc(Cl)c(C(=O)N[C@@H](CO)C(=O)OC)n1C	–	–
647	> 80	CCCCc1nc(Cl)c(C(=O)N[C@@H](Cc2ccccc2)C(=O)OC)n1C	1000	1000
–	55	CCCCc1nc(Cl)c(C(=O)N[C@@H](CC(C)C)C(=O)OC)n1C	–	–

Reference: ChEMBL document CHEMBL3585246, “Design, synthesis and evaluation of novel 2-butyl-4-chloroimidazole derived peptidomimetics as Angiotensin Converting Enzyme (ACE) inhibitors” (Bioorg Med Chem, 2015)
